Test system: 695427-040-R-J1-PDC complex spheroid viability
Assay: Anticancer human tumor 695427-040-R-J1-PDC patient-derived colon adenocarcinoma cell line growth inhibition [POLQ]
Conditions: for IC50: curve of first compound; for viability, T/C: stronger effect = lower value
Method in brief: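 Complex spheroid viability model combining PDC tumour cells with endothelial (HUVEC) and MSC stromal cells. Novobiocin, ART-558 or RP6685 were tested singly and in combination with standard and investigational anticancer drugs. Each was titrated in half-log steps from near clinical Cmax, or from 10 microM where Cmax was unknown.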

[1] = second compound 0.0316 µM, first compound 0.0316 µM
[2] = second compound 0.0316 µM, first compound 0.1 µM
[3] = second compound 0.0316 µM, first compound 0.316 µM
[4] = second compound 0.0316 µM, first compound 1 µM
[5] = second compound 0.0316 µM, first compound 3.16 µM
[6] = second compound 0.0316 µM, first compound 10 µM
[7] = second compound 0.1 µM, first compound 0.0316 µM
[8] = second compound 0.1 µM, first compound 0.1 µM
[9] = second compound 0.1 µM, first compound 0.316 µM
[10] = second compound 0.1 µM, first compound 1 µM
[11] = second compound 0.1 µM, first compound 3.16 µM
[12] = second compound 0.1 µM, first compound 10 µM
[13] = second compound 0.316 µM, first compound 0.0316 µM
[14] = second compound 0.316 µM, first compound 0.1 µM
[15] = second compound 0.316 µM, first compound 0.316 µM
[16] = second compound 0.316 µM, first compound 1 µM
[17] = second compound 0.316 µM, first compound 3.16 µM
[18] = second compound 0.316 µM, first compound 10 µM
[19] = second compound 1 µM, first compound 0.0316 µM
[20] = second compound 1 µM, first compound 0.1 µM
[21] = second compound 1 µM, first compound 0.316 µM
[22] = second compound 1 µM, first compound 1 µM
[23] = second compound 1 µM, first compound 3.16 µM
[24] = second compound 1 µM, first compound 10 µM
[25] = second compound 3.16 µM, first compound 0.0316 µM
[26] = second compound 3.16 µM, first compound 0.1 µM
[27] = second compound 3.16 µM, first compound 0.316 µM
[28] = second compound 3.16 µM, first compound 1 µM
[29] = second compound 3.16 µM, first compound 3.16 µM
[30] = second compound 3.16 µM, first compound 10 µM
[31] = second compound 10 µM, first compound 0.0316 µM
[32] = second compound 10 µM, first compound 0.1 µM
[33] = second compound 10 µM, first compound 0.316 µM
[34] = second compound 10 µM, first compound 1 µM
[35] = second compound 10 µM, first compound 3.16 µM
[36] = second compound 10 µM, first compound 10 µM
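Further: spheroids exposed to compounds for seven days.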
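Wherever viability, T/C is given: 100% = DMSO vehicle control viability.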

CC1COCCN1c1cc(C2(S(C)(=N)=O)CC2)nc(-c2ccnc3[nH]ccc23)n1 (stereo unspecified) + Cc1cccc(N(C)C(=O)C2C(O)CCN2c2nc(C)cc(C(F)(F)F)c2C#N)c1
IC50 (second compound 0.0316 µM): > 10 µM | IC50 (second compound 0.1 µM): > 10 µM | IC50 (second compound 0.316 µM): > 10 µM | IC50 (second compound 1 µM): > 10 µM | IC50 (second compound 3.16 µM): > 10 µM | IC50 (second compound 10 µM): > 10 µM | viability, T/C [1]: 104% | viability, T/C [2]: 99.1% | viability, T/C [3]: 101% | viability, T/C [4]: 95.1% | viability, T/C [5]: 101% | viability, T/C [6]: 82.5% | viability, T/C [7]: 107% | viability, T/C [8]: 101% | viability, T/C [9]: 98.5% | viability, T/C [10]: 93.8% | viability, T/C [11]: 95.5% | viability, T/C [12]: 81.2% | viability, T/C [13]: 105% | viability, T/C [14]: 95.7% | viability, T/C [15]: 100% | viability, T/C [16]: 93.4% | viability, T/C [17]: 91.7% | viability, T/C [18]: 88.8% | viability, T/C [19]: 91.1% | viability, T/C [20]: 91.6% | viability, T/C [21]: 101% | viability, T/C [22]: 103% | viability, T/C [23]: 107% | viability, T/C [24]: 80.9% | viability, T/C [25]: 103% | viability, T/C [26]: 89.8% | viability, T/C [27]: 89.7% | viability, T/C [28]: 89.9% | viability, T/C [29]: 97% | viability, T/C [30]: 73.9% | viability, T/C [31]: 93.1% | viability, T/C [32]: 96.8% | viability, T/C [33]: 91.9% | viability, T/C [34]: 87.8% | viability, T/C [35]: 92.8% | viability, T/C [36]: 67.1%

CCCS(=O)(=O)Nc1ccc(F)c(C(=O)c2c[nH]c3ncc(-c4ccc(Cl)cc4)cc23)c1F + Cc1cccc(N(C)C(=O)C2C(O)CCN2c2nc(C)cc(C(F)(F)F)c2C#N)c1
IC50 (second compound 0.0316 µM): > 10 µM | IC50 (second compound 0.1 µM): > 10 µM | IC50 (second compound 0.316 µM): > 10 µM | IC50 (second compound 1 µM): > 10 µM | IC50 (second compound 3.16 µM): > 10 µM | IC50 (second compound 10 µM): > 10 µM | viability, T/C [1]: 113% | viability, T/C [2]: 105% | viability, T/C [3]: 102% | viability, T/C [4]: 100% | viability, T/C [5]: 116% | viability, T/C [6]: 86.8% | viability, T/C [7]: 129% | viability, T/C [8]: 111% | viability, T/C [9]: 104% | viability, T/C [10]: 109% | viability, T/C [11]: 111% | viability, T/C [12]: 82.6% | viability, T/C [13]: 101% | viability, T/C [14]: 118% | viability, T/C [15]: 96.3% | viability, T/C [16]: 109% | viability, T/C [17]: 123% | viability, T/C [18]: 77.5% | viability, T/C [19]: 112% | viability, T/C [20]: 111% | viability, T/C [21]: 102% | viability, T/C [22]: 108% | viability, T/C [23]: 127% | viability, T/C [24]: 73.2% | viability, T/C [25]: 100% | viability, T/C [26]: 104% | viability, T/C [27]: 103% | viability, T/C [28]: 114% | viability, T/C [29]: 112% | viability, T/C [30]: 104% | viability, T/C [31]: 101% | viability, T/C [32]: 100% | viability, T/C [33]: 92% | viability, T/C [34]: 98.8% | viability, T/C [35]: 108% | viability, T/C [36]: 77.9%

Cn1ncnc1[C@H]1c2n[nH]c(=O)c3cc(F)cc(c23)N[C@@H]1c1ccc(F)cc1 + Cc1cccc(N(C)C(=O)C2C(O)CCN2c2nc(C)cc(C(F)(F)F)c2C#N)c1
IC50 (second compound 0.0316 µM): > 0.1 µM | IC50 (second compound 0.1 µM): > 0.1 µM | IC50 (second compound 0.316 µM): > 0.1 µM | IC50 (second compound 1 µM): > 0.1 µM | IC50 (second compound 3.16 µM): > 0.1 µM | IC50 (second compound 10 µM): > 0.1 µM | viability, T/C (second compound 0.0316 µM, first compound 0.000316 µM): 99.1% | viability, T/C (second compound 0.0316 µM, first compound 0.001 µM): 97.2% | viability, T/C (second compound 0.0316 µM, first compound 0.00316 µM): 102% | viability, T/C (second compound 0.0316 µM, first compound 0.01 µM): 99% | viability, T/C [1]: 99.4% | viability, T/C [2]: 96.8% | viability, T/C (second compound 0.1 µM, first compound 0.000316 µM): 108% | viability, T/C (second compound 0.1 µM, first compound 0.001 µM): 91.2% | viability, T/C (second compound 0.1 µM, first compound 0.00316 µM): 98.8% | viability, T/C (second compound 0.1 µM, first compound 0.01 µM): 102% | viability, T/C [7]: 102% | viability, T/C [8]: 96.7% | viability, T/C (second compound 0.316 µM, first compound 0.000316 µM): 102% | viability, T/C (second compound 0.316 µM, first compound 0.001 µM): 102% | viability, T/C (second compound 0.316 µM, first compound 0.00316 µM): 96.6% | viability, T/C (second compound 0.316 µM, first compound 0.01 µM): 105% | viability, T/C [13]: 107% | viability, T/C [14]: 94.7% | viability, T/C (second compound 1 µM, first compound 0.000316 µM): 99.2% | viability, T/C (second compound 1 µM, first compound 0.001 µM): 98.3% | viability, T/C (second compound 1 µM, first compound 0.00316 µM): 89.5% | viability, T/C (second compound 1 µM, first compound 0.01 µM): 93.2% | viability, T/C [19]: 99.3% | viability, T/C [20]: 94.6% | viability, T/C (second compound 3.16 µM, first compound 0.000316 µM): 88.9% | viability, T/C (second compound 3.16 µM, first compound 0.001 µM): 101% | viability, T/C (second compound 3.16 µM, first compound 0.00316 µM): 92.5% | viability, T/C (second compound 3.16 µM, first compound 0.01 µM): 101% | viability, T/C [25]: 102% | viability, T/C [26]: 88.8% | viability, T/C (second compound 10 µM, first compound 0.000316 µM): 89.2% | viability, T/C (second compound 10 µM, first compound 0.001 µM): 87.4% | viability, T/C (second compound 10 µM, first compound 0.00316 µM): 87.8% | viability, T/C (second compound 10 µM, first compound 0.01 µM): 88.6% | viability, T/C [31]: 93.3% | viability, T/C [32]: 90.4%
